ChEMBL document CHEMBL1156798, “Structural conservation in band 4.1, ezrin, radixin, moesin (FERM) domains as a guide to identify inhibitors of the proline-rich tyrosine kinase 2” (J Med Chem, 2010)
Calls of active or inactive are those of the source.

How the values were obtained:
[1] = target: Protein-tyrosine kinase 2-beta (Homo sapiens) (UniProt Q14289); assay: Inhibition of HA-epitope-tagged Pyk2 FERM domain expressed in HEK293 cells assessed as inhibition of binding to 12A10 antibody by ELISA; format: cell-based; design: inhibition: concentration or dose not given beside the values; details: for inhibition: concentration not given here
[2] = target: Protein-tyrosine kinase 2-beta (Homo sapiens) (UniProt Q14289); assay: Binding affinity to human Pyk2 FERM domain by LC/MS depletion assay
[3] = target: Protein-tyrosine kinase 2-beta (Homo sapiens) (UniProt Q14289); assay: Inhibition of Pyk2-mediated stimulation of human SF767 glioma cell migration at 50 uM by radial migration assay relative to control
[4] = target: Protein-tyrosine kinase 2-beta (Homo sapiens) (UniProt Q14289); assay: Inhibition of Pyk2-mediated stimulation of human SF767 glioma cell migration at 5 uM by radial migration assay relative to control

Sequence of Protein-tyrosine kinase 2-beta (Homo sapiens) (Q14289 whole entry, looked up, the tested form may be a part): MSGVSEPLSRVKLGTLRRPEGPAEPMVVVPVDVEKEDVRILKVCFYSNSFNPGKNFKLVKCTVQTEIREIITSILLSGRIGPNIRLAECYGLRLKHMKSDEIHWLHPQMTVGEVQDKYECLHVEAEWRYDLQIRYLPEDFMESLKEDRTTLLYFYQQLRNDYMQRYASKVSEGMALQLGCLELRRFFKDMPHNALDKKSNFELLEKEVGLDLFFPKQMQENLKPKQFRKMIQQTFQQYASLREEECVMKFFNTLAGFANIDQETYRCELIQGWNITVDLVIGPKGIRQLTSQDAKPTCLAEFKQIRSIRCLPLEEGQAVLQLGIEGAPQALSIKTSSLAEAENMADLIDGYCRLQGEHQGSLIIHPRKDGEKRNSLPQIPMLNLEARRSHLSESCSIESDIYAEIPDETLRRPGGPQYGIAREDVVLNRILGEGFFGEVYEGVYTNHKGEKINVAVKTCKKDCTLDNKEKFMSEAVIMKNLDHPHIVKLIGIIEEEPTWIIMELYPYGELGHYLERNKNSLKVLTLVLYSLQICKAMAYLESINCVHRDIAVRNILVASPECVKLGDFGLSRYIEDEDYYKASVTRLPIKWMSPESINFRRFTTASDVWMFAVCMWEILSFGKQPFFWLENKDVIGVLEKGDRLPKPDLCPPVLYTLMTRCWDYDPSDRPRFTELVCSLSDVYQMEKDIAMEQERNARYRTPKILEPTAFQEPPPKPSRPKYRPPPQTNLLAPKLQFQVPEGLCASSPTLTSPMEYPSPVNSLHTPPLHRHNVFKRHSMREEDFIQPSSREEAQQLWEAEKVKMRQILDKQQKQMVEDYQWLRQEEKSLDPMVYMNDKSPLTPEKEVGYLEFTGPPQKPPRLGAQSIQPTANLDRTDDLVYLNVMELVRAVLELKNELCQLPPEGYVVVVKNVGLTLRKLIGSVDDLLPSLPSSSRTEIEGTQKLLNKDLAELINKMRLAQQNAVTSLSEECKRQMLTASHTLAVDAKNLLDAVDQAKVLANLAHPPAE

Activity [1] | Structure (SMILES) | also measured
inactive | CC(C)(C)c1cc(O)nc(SCC(=O)N2CCCN(CC(=O)Nc3ccccc3C(C)(C)C)CC2)n1 | 
inactive | O=C(NNC(=O)c1n[nH]c2ccccc12)c1csc(C2CCN(C(=O)NCCC3=CCCCC3)CC2)n1 | 
 | O=C(NCC(=O)N1CCC2(CC1)CCN(C(=O)Cc1n[nH]c(=O)c3ccccc13)C2)c1ccco1 | inhibition [1]: 18%
inactive | O=C(CN1CCCN(C(=O)CNC(=O)C(F)(F)F)CC1)Nc1ccc(F)cc1F | 
inactive | C=CCOC(=O)NCCSc1nc2ccc(NC(=O)[C@H]3CCOC3)cc2s1 | 
inactive | Cc1cc(NS(=O)(=O)c2ccc3c(c2)CN(C(=O)C(F)(F)F)CC3)nc(C)n1 | 
inactive | C=CCOC(=O)NCCSc1nc2ccc(NC(=O)c3c([N+](=O)[O-])c(C)nn3C)cc2s1 | 
inactive | COc1ccc(C(N)=O)cc1NC(=O)c1csc(C2CCN(C(=O)c3cnn(-c4ccccc4)c3C)CC2)n1 | 
inactive | CC(=O)Nc1ccc(O)c(C(=O)N2CCC(c3nc(C)ccc3C(=O)NCCc3cccs3)CC2)c1 | 
inactive | CN(C)c1ccc(NC(=S)N2CCC(c3nc(C(=O)NCCc4c[nH]c5ccc(F)cc45)cs3)CC2)cc1 | 
inactive | C=CCOC(=O)NCCSc1nc2ccc(NC(=O)CNC(=O)OC)cc2s1 | 
inactive | C=CCOC(=O)NCCSc1nc2ccc(NC(=O)C(C)(C)n3cncn3)cc2s1 | 
inactive | Cc1ccc(C(=O)NCCc2c[nH]c3ccccc23)c(C2CCN(C(=O)c3ccc(NC(N)=S)cc3)CC2)n1 | 
inactive | COc1ccc(C(N)=O)cc1NC(=O)c1csc(C2CCN(C(=O)c3cc(OC)c4ccccc4n3)CC2)n1 | 
inactive | O=C(CN1CCCN(C(=O)CNC(=O)c2ccco2)CC1)NCCc1ccccc1 | 
inactive | COc1ccc(OC)c(NC(=S)NCC(=O)N[C@@H](CC(C)C)C(N)=O)c1 | 
 | C=CCOC(=O)NCCSc1nc2ccc(NC(=O)CSc3ccccn3)cc2s1 | inhibition [1]: 22%
inactive | Cc1cc(C)cc(NC(=O)N2CCC3(CCN(C(=O)CCCC[C@@H]4SC[C@@H]5NC(=O)N[C@@H]54)C3)CC2)c1 | 
inactive | CN(C)c1ccc(NC(=S)N2CCC(c3nc(C(=O)NC[C@@H]4COc5ccccc5O4)cs3)CC2)cc1 | 
inactive | CN(C)c1ccc(NC(=S)N2CCC(c3nc(C(=O)NCCOc4ccccc4Cl)cs3)CC2)cc1 | 
inactive | C=CCOC(=O)NCCSc1nc2ccc(NC(=O)c3c(C)noc3C)cc2s1 | 
inactive | C=CCOC(=O)NCCSc1nc2ccc(NC(=O)/C=C/c3ccc([N+](=O)[O-])o3)cc2s1 | 

Activity [1] | Structure (SMILES) | also measured
inactive | Cc1ccc(C(=O)NCCCn2ccnc2)c(C2CCN(C(=O)/C=C/c3cccc(O)c3)CC2)n1 | 
inactive | C=CCOC(=O)NCCSc1nc2ccc(NC(=O)Cc3ccc([N+](=O)[O-])cc3)cc2s1 | 
inactive | CCCCNS(=O)(=O)c1cccc(NC(=O)CNC(=O)c2ccoc2)c1 | 
inactive | C=CCOC(=O)NCCSc1nc2ccc(NC(=O)c3cc(C)n(C)n3)cc2s1 | 
inactive | O=C(NCC(=O)N1CCC2(CC1)CCN(C(=S)NC[C@@H]1CCCO1)C2)c1ccco1 | 
 | CC(=O)Nc1ccc(S(=O)(=O)NNC(=O)Nc2ccccc2-c2ccccc2)cc1Cl | inhibition [1]: 24%
inactive | C=CCOC(=O)NCCSc1nc2ccc(NC(=O)CCn3c(=O)oc4ccccc43)cc2s1 | 
inactive | C=CCOC(=O)NCCSc1nc2ccc(NC(=O)Cc3nc(C)sc3C)cc2s1 | 
inactive | Cc1ccc(C(=O)NCCc2cccs2)c(C2CCN(C(=O)c3nc4ccccc4nc3O)CC2)n1 | 
inactive | Cc1cccc(C)c1NC(=O)CN1CCCN(C(=O)CNC(=O)c2ccco2)CC1 | 
 | C=CCOC(=O)NCCSc1nc2ccc(NC(=O)[C@H]3CC(=O)c4ccccc43)cc2s1 | inhibition [1]: 11%
inactive | CCOC(=O)c1nc(NC(=O)c2csc(C3CCN(C(=O)NCCC4=CCCCC4)CC3)n2)cn1C | 
inactive | C=CCOC(=O)NCCSc1nc2ccc(NC(=O)c3cccc(C#N)c3)cc2s1 | 
inactive | O=C(COc1ccccc1)NNC(=O)c1csc(C2CCN(C(=O)NCCC3=CCCCC3)CC2)n1 | 
inactive | COc1ccccc1NC(=O)N1CCC2(CC1)CCN(S(=O)(=O)c1sc(NC(C)=O)nc1C)C2 | 
inactive | C=CCOC(=O)NCCSc1nc2ccc(NC(=O)C3(C#N)CC3)cc2s1 | 
inactive | COc1ccc(C(N)=O)cc1NC(=O)c1csc(C2CCN(C(=O)C#Cc3ccccc3)CC2)n1 | 
inactive | COc1ccc(C(=O)CCC(=O)N2CCC(c3nc(C(=O)Nc4cc(C(N)=O)ccc4OC)cs3)CC2)cc1 | 
inactive | C=CCOC(=O)NCCSc1nc2ccc(NC(=O)c3ccccc3S(C)(=O)=O)cc2s1 | 
inactive | C#CC[C@H](NC(C)=O)C(=O)Nc1ccc2nc(SCCNC(=O)OCC=C)sc2c1 | 
 | C=CCOC(=O)NCCSc1nc2ccc(NC(=O)CSc3nc(C)cc(C)n3)cc2s1 | inhibition [1]: 19%
inactive | COC(=O)c1ccc(NS(=O)(=O)c2ccc(NC(C)=O)c(Cl)c2)cc1OC | 

Activity [1] | Structure (SMILES) | also measured
inactive | C=CCOC(=O)NCCSc1nc2ccc(NC(=O)[C@H]3CCCN3C(=O)c3cccs3)cc2s1 | 
inactive | CN(C)c1ccc(NC(=S)N2CCC(c3nc(C(=O)NC[C@H](c4ccc[nH]4)C(F)(F)F)cs3)CC2)cc1 | 
 | Cc1ccc(C(=O)NCCc2cc3ccccc3[nH]2)c(C2CCN(C(=O)CNC(=O)Nc3ccccc3)CC2)n1 | inhibition [1]: 6%
inactive | O=C(Nc1ccccc1N1CCOCC1)c1csc(C2CCN(C(=O)NCCC3=CCCCC3)CC2)n1 | 
inactive | Cc1nc(C)c(C(=O)NNC(=O)c2csc(C3CCN(C(=O)Cc4c[nH]c5ccccc45)CC3)n2)s1 | 
inactive | CC(=O)Nc1cccc(OCCCNC(=O)c2csc(C3CCN(C(=O)C4CCCCC4)CC3)n2)c1 | 
 | COc1ccc(NC(C)=O)cc1NS(=O)(=O)c1ccc(NC(C)=O)cc1 | inhibition [1]: 18%
inactive | C=CCOC(=O)NCCSc1nc2ccc(NC(=O)c3coc4c3C(=O)CCC4)cc2s1 | 
inactive | CCOC(=O)NNC(=O)c1csc(C2CCN(C(=O)Cc3c[nH]c4ccccc34)CC2)n1 | 
inactive | CC(=O)Nc1ccc(S(=O)(=O)NNC(=O)Nc2c(C(C)C)cccc2C(C)C)cc1Cl | 
inactive | COc1ccc(C(N)=O)cc1NC(=O)c1csc(C2CCN(C(=O)c3cc4ccccc4o3)CC2)n1 | 
inactive | C=CCOC(=O)NCCSc1nc2ccc(NC(=O)C3CCN(C(=O)c4ccccc4)CC3)cc2s1 | 
inactive | C=CCOC(=O)NCCSc1nc2ccc(NC(=O)CS(=O)(=O)c3ccc(C)cc3)cc2s1 | 
inactive | C=CCOC(=O)NCCSc1nc2ccc(NC(=O)c3ccc([N+](=O)[O-])cc3F)cc2s1 | 
inactive | O=C(N1CCc2ccc(S(=O)(=O)Nc3ccc(Cl)nn3)cc2C1)C(F)(F)F | 
inactive | Cc1ccc(C(=O)Nc2nnc(C(C)(C)C)s2)c(C2CCN(C(=O)c3nc4ccccc4nc3O)CC2)n1 | 
inactive | O=C(NNC(=O)[C@H]1CCCNC1=O)c1csc(C2CCN(C(=O)NCCC3=CCCCC3)CC2)n1 | 
inactive | CCOc1ccccc1CNC(=O)c1ccc(C)nc1C1CCN(C(=O)/C=C/c2cccc(O)c2)CC1 | 
 | C=CCOC(=O)NCCSc1nc2ccc(NC(=O)c3csnn3)cc2s1 | Activity [2]: Active; inhibition [3]: 85%; inhibition [4]: 50%; inhibition [1]: 33%
inactive | CCCOCCNC(=O)c1ccc(C)nc1C1CCN(C(=O)c2cc(NC(C)=O)ccc2O)CC1 | 
inactive | N#Cc1c(Cl)cccc1Oc1ccc(S(=O)(=O)Nc2ccc(S(=O)(=O)Nc3ccccn3)cc2)cc1 | 
inactive | C=CCOC(=O)NCCSc1nc2ccc(NC(=O)c3cc(NC(C)=O)cc(NC(C)=O)c3)cc2s1 | 
